Values quoted from earlier work as cited in US10758506B2, “Amino acid compositions for the treatment of porcine epidemic diarrhea” (priority 2014, dated 2020).

Details: Health Phys., 106(6):734-44, 2014

Row | SMILES | active anion secretion and/or paracellular permeability
1 | N=C(N)NCCC[C@H](N)C(=O)O [Arginine] | activate active anion secretion and/or increase paracellular permeability
2 | C[C@H](N)C(=O)O [alanine] | activate active anion secretion and/or increase paracellular permeability
3 | NC(=O)C[C@H](N)C(=O)O [asparagine] | activate active anion secretion and/or increase paracellular permeability
4 | N[C@@H](CS)C(=O)O [cysteine] | activate active anion secretion and/or increase paracellular permeability
5 | N[C@@H](CCC(=O)O)C(=O)O [glutamic acid] | activate active anion secretion and/or increase paracellular permeability
6 | NC(=O)CC[C@H](N)C(=O)O [glutamine] | activate active anion secretion and/or increase paracellular permeability
7 | N[C@@H](Cc1c[nH]cn1)C(=O)O [histidine] | activate active anion secretion and/or increase paracellular permeability
8 | CC(C)C[C@H](N)C(=O)O [leucine] | activate active anion secretion and/or increase paracellular permeability
9 | CSCC[C@H](N)C(=O)O [methionine] | activate active anion secretion and/or increase paracellular permeability
10 | N[C@@H](Cc1ccccc1)C(=O)O [phenylalanine] | activate active anion secretion and/or increase paracellular permeability
